The text below walks through data of US4432974A, “Antiinflammatory and/or analgesic 2,3-diaryl-5-silyl thiophenes” (E. I. Du Pont de Nemours and Company, priority 1982, dated 1984).

Assay [1] concerns adjuvant-induced arthritis in rats. Description: Established Adjuvant-Induced Arthritis in Rats. Type of assay: in vivo, Charles River Lewis male rats. The settings on record: for ED50: 168 h, read-out: Adjuvant Arthritis ED50 % Decrease From Control Paw Volume.
Assay [2] concerns phenylquinone-induced writhing in mice. Briefly: Phenylquinone Writhing Test. Type of assay: in vivo, female white mice. The note with it: Mus musculus, read-out: Phenylquinone Writhing ED50. On the procedure: A standard procedure for detecting and comparing the analgesic activity of compounds in this series for which there is a good correlation with human efficacy is the standard phenylquinone writhing test modified from Siegmund, et al., Proc. Soc. Exp. Biol. Med., 95, 729 (1957). A test compound suspended in 1% methylcellulose was given orally to fasted (17-21 hours) female white mice, 5-20 animals per double blind test. Aqueous (0.01% phenyl-p-benzoquinone) phenylquinone, 0.20 ml per mouse, was injected intraperitoneally 6 minutes before observations were begun. […] The effective analgesic dose for 50% of the mice (ED50) was calculated by the moving average method of Thompson, W. R., Bact. Rev., 11, 115-145 (1947); the time of peak activity was determined for many of the compounds. Data for some of the compounds is summarized in Tables II and III together with data for some standard analgetic antiinflammatory drugs.

The mark [3] stands for this setting: Table III, oral daily, 7 days, rat, from dose-response regression lines.
[4] abbreviates: Table III, oral, fasted female white mice.
Where [5] appears, read: daily oral dose 45 mg/kg, 7 days, rat, footnote 1 p < .001, footnote 2 p < .05 vs control.

Where two headings read alike, the source gives them in different places.

The ED50 is the dose that gives a 50% effect, or the effect in half of the subjects. `COc1ccc(-c2cc([Si](C)(C)C(C)(C)C)sc2-c2ccc(OC)cc2)cc1` [Example 11]: the median effective dose (ED50) in assay [1] (Rattus norvegicus, po) is 40 mg/kg; in assay [2] (po), over 108 mg/kg.

For the compound `C[Si](C)(C)c1cc(-c2ccc(F)cc2)c(-c2ccc(F)cc2)s1` [Example 3], the “Adjuvant Arthritis Percent Decrease From Control Paw Volume” value in assay [1] (daily oral dose 27 mg/kg, 7 days, rat, p < .001 vs control (Student's t)) amounted to 37%. In addition, the ED50 in assay [2] (po) was 4.5 mg/kg.

Consider `COc1ccc(-c2cc([Si](C)(C)c3ccccc3)sc2-c2ccc(OC)cc2)cc1` [Example 12], for which the ED50 is 55 mg/kg in assay [1] (Rattus norvegicus, po) and under 108 mg/kg in assay [2] (po).

For `CCCCC1C(=O)N(c2ccccc2)N(c2ccccc2)C1=O` [Phenylbutazone, reference compound], the 50% effective dose (ED50) in assay [1] (setting [3]) was 10 mg/kg; in assay [2] (setting [4]) it was 80 mg/kg.

As for `CC(C)Cc1ccc(C(C)C(=O)O)cc1` (centres unmarked) [Ibuprofen, reference compound], the values for the ED50 in assay [1] (setting [3]) and in assay [2] (setting [4]) were 100 mg/kg and 10 mg/kg, respectively.

Regarding `COc1ccc(-c2cc([Si](C)(C)Cc3ccccc3)sc2-c2ccc(OC)cc2)cc1` [Example 13], in assay [1] (setting [5]), the “Adjuvant Arthritis Percent Decrease From Control Paw Volume” value was found to be 24%.

Regarding `C[Si](C)(C)c1cc(-c2ccccc2)c(-c2ccccc2)s1` [Example 4], the ED50 in assay [1] (Rattus norvegicus, po) was determined as 45 mg/kg; in assay [2] (po), 15 mg/kg.

As to `COc1ccc2c(c1)c(CC(=O)O)c(C)n2C(=O)c1ccc(Cl)cc1` [Indomethacin, reference compound], the 50% effective dose (ED50) in assay [1] (Rattus norvegicus, po) was 0.3 mg/kg; in assay [2] (po) it was 0.35 mg/kg.

With `CSc1ccc(-c2sc([Si](C)(C)C)cc2-c2ccc(F)cc2)cc1` [Example 6], the “Adjuvant Arthritis Percent Decrease From Control Paw Volume” value in assay [1] (daily oral dose 81 mg/kg, 7 days, rat, p < .001 vs control (Student's t)) is recorded as 42%.

Regarding `COc1ccc(-c2cc([Si](C)(C)CCC(F)(F)F)sc2-c2ccc(OC)cc2)cc1` [Example 9], the ED50 in assay [1] (Rattus norvegicus, po) was found to be 30 mg/kg.

On to `CC[Si](CC)(CC)c1cc(-c2ccc(OC)cc2)c(-c2ccc(OC)cc2)s1` [Example 10], for which the ED50 worked out at 25 mg/kg in assay [1] (Rattus norvegicus, po) and 5.2 mg/kg in assay [2] (po).

In the case of `COc1ccc(-c2cc([Si](C)(C)C)sc2-c2ccc(OC)cc2)cc1` [Example 1, 2,3-Bis(4-methoxyphenyl)-5-(trimethylsilyl)thiophene], the median effective dose (ED50) in assay [1] (Rattus norvegicus, po) turned out to be 8 mg/kg; in assay [2] (po) it was 0.19 mg/kg.

In the case of `CC(=O)Oc1ccccc1C(=O)O` [Aspirin, reference compound], the ED50 in assay [2] (po) was determined as 135 mg/kg.

Turning to `Cc1ccc(-c2cc([Si](C)(C)C)sc2-c2ccc(C)cc2)cc1` [Example 5], the “Adjuvant Arthritis Percent Decrease From Control Paw Volume” value in assay [1] (setting [5]) worked out at 44%. Moreover, in assay [2] (po), the ED50 came out at 135 mg/kg.

With `C=CC[Si](C)(C)c1cc(-c2ccc(OC)cc2)c(-c2ccc(OC)cc2)s1` [Example 8, 2,3-bis(4-methoxyphenyl)-5-[(2-propenyl)dimethylsilyl]thiophene], the median effective dose (ED50) in assay [1] (Rattus norvegicus, po) worked out at 9.4 mg/kg; in assay [2] (po), 0.76 mg/kg.

`C=C[Si](C)(C)c1cc(-c2ccc(OC)cc2)c(-c2ccc(OC)cc2)s1` [Example 7, 2,3-bis(4-methoxyphenyl)-5-(ethenyldimethylsilyl)thiophene]: the ED50 was 6.8 mg/kg in assay [1] (Rattus norvegicus, po) and 0.23 mg/kg in assay [2] (po).

In the case of `COc1ccc(-c2cc([Si](C)(C)OC)sc2-c2ccc(OC)cc2)cc1` [Example 21, 2,3-Bis(4-methoxyphenyl)-5-(methoxydimethylsilyl)thiophene], the ED50 came out at 9.8 mg/kg in assay [1] (Rattus norvegicus, po) and 3.8 mg/kg in assay [2] (po).

Take `COc1ccc(-c2cc([SiH](C)C)sc2-c2ccc(OC)cc2)cc1` [Example 2, 2,3-Bis(4-methoxyphenyl)-5-(dimethylsilyl)thiophene]: the ED50 was found to be 14.5 mg/kg in assay [1] (Rattus norvegicus, po) and 2.1 mg/kg in assay [2] (po).
